Measurements taken from patent US10099995B2 (Cole Research and Design, LLC, priority 2015, dated 2018).
Converted amounts (≈) assume the structure as drawn.

Assays:
physchem = assay: physchem
Experimental: Two 4 mg samples of each compound were weighed.
The first sample was used to determine solubility. The sample was mixed with 1 mL of pH 7.4 phosphate buffered saline (PBS) buffer solution to produce a 4 mg/mL solution. The solution was vortexed and filtered to remove undissolved particles. The filtered solution was then diluted in pH 7.4 buffer in triplicate and stored in a refrigerator to reduce hydrolysis. The solutions were allowed to sit at room temperature for 5 minutes and then were analyzed by HPLC.
The second sample was used to prepare a calibration curve in ethanol. Calibrators were made based on expected solubility. After visually inspecting solubility in the buffer, the calibration curve was determined in order to include points above and below the expected concentration. The calibrators were stored in a refrigerator until ready for analysis by HPLC.

[1] = pH 7.4
[2] = tested on: subscapular incision wound; assay: in vivo application of compositions to subscapular incisions in a rat model (Example 13); set-up: species or system Sprague-Dawley rats
From the text: 12 Sprague-Dawley rats were placed randomly into 6 different groups, Study Groups 1-6, resulting in 2 animals per study group. Animals were anesthetized and the dorsal subscapular areas were shaved of hair with electric trimmers. Demarcations were made in a gently widening parallel approximately 1 cm subscapular and 2.2 cm in length. The left subscapular incision served as a control and the right subscapular incision served as the treatment site. The subscapular areas were incised with a #15 blade though the skin and subcutaneous panniculus carnosus muscle. The composition mixture corresponding to each group was then instilled into the right subscapular wound and the incision closed with 5-0 nylon interrupted fashion. Additional mixture was applied to the surface of the treatment site incision. Three biopsies were taken of normal skin at the time of incision and prior to any mixture instillation. Each site was then monitored and photographed daily. Wound gross morphology was noted daily. Sutures were removed and biopsies were taken at day 8 of the study (postoperative day #7) and sent to pathology for histology review. Histology was reviewed independently by two dermatopathologists.
A siRNA (MCP-1 inhibitor)

wound = settings: applied before wound formation or up to 24 hours after; cited from earlier work

Row | Solubility (physchem; pH 7.4) [mg/mL] | hydrolysis [1] | evidence of trichogranuloma in histology specimens ([2]; histology) | Solubility (physchem; pH 7.4, aqueous buffer, thermodynamic from solid) [mg/mL] | Structure (SMILES) | differences in histology between control and treatment site ([2]; 100 μM and 400 μM (either dosage), Groups 2 and 3) | difference in treatment, alone, as compared to natural resveratrol alone ([2]; Groups 2 and 3) | scar (wound) | time to re-epithelialization (wound)
1 | 0.291 (≈ 551 µM) | quick hydrolysis | – | – | O=C(O)CCC(=O)Oc1ccc(C=Cc2cc(OC(=O)CCC(=O)O)cc(OC(=O)CCC(=O)O)c2)cc1 [Resveratrol trihemisuccinate, resveratrol trihemisuccinate] | – | – | – | –
2 | 2.06 (≈ 3610 µM) | slightly hydrolyzed | mild | – | O=C(O)CCCC(=O)Oc1ccc(C=Cc2cc(OC(=O)CCCC(=O)O)cc(OC(=O)CCCC(=O)O)c2)cc1 [Resveratrol trihemiglutarate, resveratrol trihemiglutarate] | no differences | no appreciable difference | – | –
3 | – | – | – | 0.0048 (≈ 21 µM) | Oc1ccc(/C=C/c2cc(O)cc(O)c2)cc1 [Resveratrol, trans-3,4′,5-trihydroxystilbene] | – | – | attenuated scar | up to 24 hours
